Consider one molecule from PMC5218480 (PLoS ONE, 2017).

For the assay, the system named is MV-4-11 cells. Nature of the assay: Gene expression microarray analysis (Affymetrix PrimeView) and GSEA. In kind it is cell-based, human. On the set-up: RFU PODN (11730768_x_at) / Fold change /veh PODN (11730768_x_at) / RFU LINC00158 (11744669_a_at) / Fold change /veh LINC00158 (11744669_a_at) / RFU DUSP10 (11751237_a_at) / Fold change /veh DUSP10 (11751237_a_at) / RFU ID3 (11757404_x_at) / Fold change /veh ID3 (11757404_x_at) / RFU PLEKHG5 (11737974_s_at) / Fold change /veh PLEKHG5 (11737974_s_at) / RFU LRRC4B (11730491_at) / Fold change /veh LRRC4B (11730491_at) / RFU GIMAP4 (11747438_a_at) / Fold change /veh GIMAP4 (11747438_a_at) / RFU KRT8 (11758183_x_at) / Fold change /veh KRT8 (11758183_x_at) / RFU CNN1 (11734310_a_at) / Fold change /veh CNN1 (11734310_a_at) / RFU VPS37D (11726825_at) / Fold change /veh VPS37D (11726825_at) / RFU C10orf10 (11716522_x_at) / Fold change /veh C10orf10 (11716522_x_at) / RFU KIR2DL2 /// KIR2DL4 /// KIR2DL5A /// KIR2DL5B /// KIR2DS1 /// KIR2DS2 /// KIR2DS3 /// KIR2DS4 /// KIR3DL3 /// KIR3DL3 /// KIR3DS1 (11738374_at) / Fold change /veh KIR2DL2 /// KIR2DL4 /// KIR2DL5A /// KIR2DL5B /// KIR2DS1 /// KIR2DS2 /// KIR2DS3 /// KIR2DS4 /// KIR3DL3 /// KIR3DL3 /// KIR3DS1 (11738374_at) / RFU C1QL1 (11718748_at) / Fold change /veh C1QL1 (11718748_at) / RFU TMPRSS4 (11747572_a_at) / Fold change /veh TMPRSS4 (11747572_a_at) / RFU HAMP (11756126_x_at) / Fold change /veh HAMP (11756126_x_at) / RFU RNFT2 (11725882_a_at) / Fold change /veh RNFT2 (11725882_a_at) / RFU NR4A2 (11747474_a_at) / Fold change /veh NR4A2 (11747474_a_at) / RFU ABCC12 (11746883_a_at) / Fold change /veh ABCC12 (11746883_a_at) / RFU TMEM136 (11760407_x_at) / Fold change /veh TMEM136 (11760407_x_at) / RFU CLDN22 /// WWC2 (11732394_at) / Fold change /veh CLDN22 /// WWC2 (11732394_at) / RFU HLA-DPB1 (11760878_x_at) / Fold change /veh HLA-DPB1 (11760878_x_at) / RFU SPINT1 (11716480_a_at) / Fold change /veh SPINT1 (11716480_a_at) / RFU GAP43 (11754022_s_at) / Fold change /veh GAP43 (11754022_s_at) / RFU A4GNT (11735810_at) / Fold change /veh A4GNT (11735810_at) / RFU PRB3 (11715151_x_at) / Fold change /veh PRB3 (11715151_x_at) / RFU TUBB4B (11761932_at) / Fold change /veh TUBB4B (11761932_at) / RFU CAPN14 (11732068_a_at) / Fold change /veh CAPN14 (11732068_a_at) / RFU TMCC2 (11721928_a_at) / Fold change /veh TMCC2 (11721928_a_at) / RFU IRGQ (11745062_a_at) / Fold change /veh IRGQ (11745062_a_at) / RFU FAM174B (11720279_a_at) / Fold change /veh FAM174B (11720279_a_at) / RFU TMPRSS4 (11748680_a_at) / Fold change /veh TMPRSS4 (11748680_a_at) / RFU FAM212B (11763350_a_at) / Fold change /veh FAM212B (11763350_a_at) / RFU PLEKHG5 (11743358_a_at) / Fold change /veh PLEKHG5 (11743358_a_at) / RFU ZSCAN30 (11745921_a_at) / Fold change /veh ZSCAN30 (11745921_a_at) / RFU CMKLR1 (11741424_a_at) / Fold change /veh CMKLR1 (11741424_a_at) / RFU LOC101060620 /// MAPK8IP1 (11723275_at) / Fold change /veh LOC101060620 /// MAPK8IP1 (11723275_at) / RFU SPTSSB (11747773_x_at) / Fold change /veh SPTSSB (11747773_x_at) / RFU PRSS12 (11739890_at) / Fold change /veh PRSS12 (11739890_at) / RFU BIN1 (11741810_x_at) / Fold change /veh BIN1 (11741810_x_at) / RFU WNT11 (11732464_a_at) / Fold change /veh WNT11 (11732464_a_at) / RFU C10orf10 (11716521_a_at) / Fold change /veh C10orf10 (11716521_a_at) / RFU C5orf56 (11738089_at) / Fold change /veh C5orf56 (11738089_at) / RFU CYB561 (11721691_x_at) / Fold change /veh CYB561 (11721691_x_at) / RFU ANKRD19P (11752326_a_at) / Fold change /veh ANKRD19P (11752326_a_at) / RFU OR2T12 /// OR2T33 /// OR2T8 (11738714_s_at) / Fold change /veh OR2T12 /// OR2T33 /// OR2T8 (11738714_s_at) / RFU VCAN (11748164_a_at) / Fold change /veh VCAN (11748164_a_at) / RFU JSRP1 (11732532_at) / Fold change /veh JSRP1 (11732532_at) / RFU KRTAP10-11 (11738290_x_at) / Fold change /veh KRTAP10-11 (11738290_x_at) / RFU MYO3A (11730013_a_at) / Fold change /veh MYO3A (11730013_a_at) / RFU EBF3 (11725865_a_at) / Fold change /veh EBF3 (11725865_a_at) / RFU CAMK2N1 (11719241_x_at) / Fold change /veh CAMK2N1 (11719241_x_at) / RFU C5orf56 (11738088_a_at) / Fold change /veh C5orf56 (11738088_a_at) / RFU OLFML3 (11715873_a_at) / Fold change /veh OLFML3 (11715873_a_at) / RFU LOC100653217 /// NTM (11731650_a_at) / Fold change /veh LOC100653217 /// NTM (11731650_a_at) / RFU MAPK11 (11762145_a_at) / Fold change /veh MAPK11 (11762145_a_at) / RFU FIZ1 (11724087_x_at) / Fold change /veh FIZ1 (11724087_x_at) / RFU OASL (11726364_x_at) / Fold change /veh OASL (11726364_x_at) / RFU SOX15 (11748057_x_at) / Fold change /veh SOX15 (11748057_x_at) / RFU CD79A (11719716_a_at) / Fold change /veh CD79A (11719716_a_at) / RFU HIST1H1D (11736915_at) / Fold change /veh HIST1H1D (11736915_at) / RFU CASKIN2 (11723855_a_at) / Fold change /veh CASKIN2 (11723855_a_at) / RFU LOC730098 (11760151_x_at) / Fold change /veh LOC730098 (11760151_x_at) / RFU OR4N2 (11742367_at) / Fold change /veh OR4N2 (11742367_at) / RFU PRRT2 (11749266_a_at) / Fold change /veh PRRT2 (11749266_a_at) / RFU SNX32 (11753110_a_at) / Fold change /veh SNX32 (11753110_a_at) / RFU CDHR5 (11726645_a_at) / Fold change /veh CDHR5 (11726645_a_at) / RFU RCAN1 (11760418_a_at) / Fold change /veh RCAN1 (11760418_a_at) / RFU FAM167A (11723789_a_at) / Fold change /veh FAM167A (11723789_a_at) / RFU FAM26E (11764081_at) / Fold change /veh FAM26E (11764081_at) / RFU ISYNA1 (11749810_s_at) / Fold change /veh ISYNA1 (11749810_s_at) / RFU ACY1 (11761880_at) / Fold change /veh ACY1 (11761880_at) / RFU 11764098_at / Fold change /veh 11764098_at / RFU SAMD14 (11745864_x_at) / Fold change /veh SAMD14 (11745864_x_at) / RFU NPB (11741838_a_at) / Fold change /veh NPB (11741838_a_at) / RFU TMPRSS6 (11731388_a_at) / Fold change /veh TMPRSS6 (11731388_a_at) / RFU KRTAP10-2 (11738614_at) / Fold change /veh KRTAP10-2 (11738614_at) / RFU ARHGAP8 /// PRR5-ARHGAP8 (11727945_x_at) / Fold change /veh ARHGAP8 /// PRR5-ARHGAP8 (11727945_x_at) / RFU KRTAP5-7 /// NADSYN1 (11734609_at) / Fold change /veh KRTAP5-7 /// NADSYN1 (11734609_at) / RFU RASL12 (11751679_a_at) / Fold change /veh RASL12 (11751679_a_at) / RFU CDKN2B (11736163_a_at) / Fold change /veh CDKN2B (11736163_a_at) / RFU PRF1 (11729649_at) / Fold change /veh PRF1 (11729649_at) / RFU, ZNF638 /// ZNF638-IT1 / Fold change vs veh, ZNF638 /// ZNF638-IT1 / RFU, PANK3 / Fold change vs veh, PANK3 / RFU, SH3YL1 / Fold change vs veh, SH3YL1 / RFU, ZEB2 / Fold change vs veh, ZEB2 / RFU, NRIP1 / Fold change vs veh, NRIP1 / RFU, PTTG1IP / Fold change vs veh, PTTG1IP / RFU, CAPN2 / Fold change vs veh, CAPN2 / RFU, MED14 / Fold change vs veh, MED14 / RFU, SNORA58 / Fold change vs veh, SNORA58 / RFU, C1orf63 / Fold change vs veh, C1orf63 / RFU, LRRFIP1 / Fold change vs veh, LRRFIP1 / RFU, NDUFAF7 / Fold change vs veh, NDUFAF7 / RFU, SLC12A2 / Fold change vs veh, SLC12A2 / RFU, IBTK / Fold change vs veh, IBTK / RFU, ESF1 / Fold change vs veh, ESF1 / Fold change vs veh, TMEM50B / RFU, TAOK1 / Fold change vs veh, TAOK1 / RFU, ACBD3 / Fold change vs veh, ACBD3 / RFU, TMA16 / Fold change vs veh, TMA16 / RFU, RWDD3 / Fold change vs veh, RWDD3 / RFU, BCAT1 / Fold change vs veh, BCAT1 / RFU, EDEM3 / Fold change vs veh, EDEM3 / RFU, TMEM33 / Fold change vs veh, TMEM33 / RFU, WDR75 / Fold change vs veh, WDR75 / RFU, AHCTF1 / Fold change vs veh, AHCTF1 / RFU, TFRC / Fold change vs veh, TFRC / RFU, ZDHHC17 / Fold change vs veh, ZDHHC17 / RFU, NOM1 / Fold change vs veh, NOM1 / RFU, ARL8B / Fold change vs veh, ARL8B / RFU, ZBTB11 / Fold change vs veh, ZBTB11 / RFU, TAMM41 / Fold change vs veh, TAMM41 / RFU, KIAA1704 /// LOC100996395 / Fold change vs veh, KIAA1704 /// LOC100996395 / RFU, ING1 / Fold change vs veh, ING1 / RFU, TRMT61B / Fold change vs veh, TRMT61B / RFU, FUBP3 / Fold change vs veh, FUBP3 / RFU, TP53 / Fold change vs veh, TP53 / RFU, TNKS2 / Fold change vs veh, TNKS2 / RFU, ZFP14 / Fold change vs veh, ZFP14 / RFU, ACTR2 / Fold change vs veh, ACTR2 / RFU, PPP3R1 / Fold change vs veh, PPP3R1 / RFU, PIK3R1 / Fold change vs veh, PIK3R1 / RFU, HNRNPA1 / Fold change vs veh, HNRNPA1 / RFU, RNF170 / Fold change vs veh, RNF170 / RFU, ZNF28 / Fold change vs veh, ZNF28 / RFU, RNGTT / Fold change vs veh, RNGTT / RFU, OGT / Fold change vs veh, OGT / RFU, BRD1 / Fold change vs veh, BRD1 / RFU, MARS / Fold change vs veh, MARS / RFU, ZNF655 / Fold change vs veh, ZNF655 / RFU, FAHD1 / Fold change vs veh, FAHD1 / RFU, BDP1 / Fold change vs veh, BDP1 / RFU, LRRCC1 / Fold change vs veh, LRRCC1 / RFU, ARID1A / Fold change vs veh, ARID1A / RFU, ZNF146 / Fold change vs veh, ZNF146 / RFU, ZNF330 / Fold change vs veh, ZNF330 / RFU, GPN3 / Fold change vs veh, GPN3 / RFU, C9orf123 / Fold change vs veh, C9orf123 / RFU, N4BP2L2 / Fold change vs veh, N4BP2L2 / RFU, ARFIP1 / Fold change vs veh, ARFIP1 / RFU, FAM179B / Fold change vs veh, FAM179B / RFU, BCL10 / Fold change vs veh, BCL10 / RFU, UHRF1BP1L / Fold change vs veh, UHRF1BP1L / RFU, BET1 / Fold change vs veh, BET1 / RFU, CNOT2 / Fold change vs veh, CNOT2 / RFU, ZNF268 / Fold change vs veh, ZNF268 / Fold change vs veh, ZNF507 / RFU, DGCR2 / Fold change vs veh, DGCR2 / RFU, WDSUB1 / Fold change vs veh, WDSUB1 / Fold change vs veh, HSP90B1 /// MIR3652 / RFU, ADSS / Fold change vs veh, ADSS / RFU, GK / Fold change vs veh, GK / RFU, ZNF148 / Fold change vs veh, ZNF148 / RFU, TAF9 / Fold change vs veh, TAF9 / RFU, SLC1A5 / Fold change vs veh, SLC1A5 / RFU, SLMO2 / Fold change vs veh, SLMO2 / RFU, ABCC4 / Fold change vs veh, ABCC4 / RFU, LOC101060439 /// RAP1B / Fold change vs veh, LOC101060439 /// RAP1B / RFU, RFX7 / Fold change vs veh, RFX7 / RFU, GTPBP10 / Fold change vs veh, GTPBP10 / RFU, CNEP1R1 / Fold change vs veh, CNEP1R1 / RFU, BIVM-ERCC5 /// ERCC5 / Fold change vs veh, BIVM-ERCC5 /// ERCC5 / RFU, ILF3 / Fold change vs veh, ILF3 / RFU 11762660_at / Fold change /veh 11762660_at / RFU VCAN (11757783_s_at) / Fold change /veh VCAN (11757783_s_at) / RFU DDX43 (11728927_at) / Fold change /veh DDX43 (11728927_at) / RFU KRT8 (11758188_x_at) / Fold change /veh KRT8 (11758188_x_at) / RFU NKD1 (11759106_at) / Fold change /veh NKD1 (11759106_at) / RFU SRD5A1 (11742802_a_at) / Fold change /veh SRD5A1 (11742802_a_at) / RFU TPSAB1 /// TPSB2 (11721975_s_at) / Fold change /veh TPSAB1 /// TPSB2 (11721975_s_at) / RFU GSTM3 (11746129_a_at) / Fold change /veh GSTM3 (11746129_a_at) / RFU IL23R (11737362_x_at) / Fold change /veh IL23R (11737362_x_at) / RFU TMEM51 (11727254_a_at) / Fold change /veh TMEM51 (11727254_a_at) / RFU PIWIL2 (11732686_x_at) / Fold change /veh PIWIL2 (11732686_x_at) / RFU ORM1 (11744905_x_at) / Fold change /veh ORM1 (11744905_x_at) / RFU CCDC152 (11743942_at) / Fold change /veh CCDC152 (11743942_at) / RFU ECM1 (11717891_a_at) / Fold change /veh ECM1 (11717891_a_at) / RFU IL23R (11748794_a_at) / Fold change /veh IL23R (11748794_a_at) / RFU TNFAIP8L3 (11732012_x_at) / Fold change /veh TNFAIP8L3 (11732012_x_at) / RFU MBOAT4 (11741988_at) / Fold change /veh MBOAT4 (11741988_at) / RFU 11764193_at / Fold change /veh 11764193_at / RFU TMEM53 (11763286_at) / Fold change /veh TMEM53 (11763286_at) / RFU MAGEB2 (11727129_at) / Fold change /veh MAGEB2 (11727129_at) / RFU TMEM200A (11744735_a_at) / Fold change /veh TMEM200A (11744735_a_at) / RFU CCDC152 (11751479_a_at) / Fold change /veh CCDC152 (11751479_a_at) / RFU FAM211A (11726209_a_at) / Fold change /veh FAM211A (11726209_a_at) / RFU RGS16 (11746705_a_at) / Fold change /veh RGS16 (11746705_a_at) / RFU VCAN (11755009_s_at) / Fold change /veh VCAN (11755009_s_at) / RFU RHOB (11743442_s_at) / Fold change /veh RHOB (11743442_s_at) / RFU RGS16 (11720943_a_at) / Fold change /veh RGS16 (11720943_a_at) / RFU RGS16 (11720944_at) / Fold change /veh RGS16 (11720944_at) / RFU, VPS4B / Fold change vs veh, VPS4B / RFU, CREB1 / Fold change vs veh, CREB1 / RFU, DNAJC13 / Fold change vs veh, DNAJC13 / RFU, GNAQ / Fold change vs veh, GNAQ / RFU, CDK5R1 / Fold change vs veh, CDK5R1 / RFU, ZRANB3 / Fold change vs veh, ZRANB3 / RFU, CUL4A / Fold change vs veh, CUL4A / RFU, CCNY / Fold change vs veh, CCNY / RFU, UFL1 / Fold change vs veh, UFL1 / RFU, COG3 / Fold change vs veh, COG3 / RFU, DIAPH2 / Fold change vs veh, DIAPH2 / RFU, SKA2 / Fold change vs veh, SKA2 / RFU, AFF3 / Fold change vs veh, AFF3 / RFU, LMF1 / Fold change vs veh, LMF1 / RFU, IPO11 / Fold change vs veh, IPO11 / RFU, DFFB / Fold change vs veh, DFFB / RFU, FOXP1 / Fold change vs veh, FOXP1 / RFU, CARD8 / Fold change vs veh, CARD8 / RFU, STRN3 / Fold change vs veh, STRN3 / RFU, ADK / Fold change vs veh, ADK / RFU, RASSF2 / Fold change vs veh, RASSF2 / RFU, WIPF1 / Fold change vs veh, WIPF1 / RFU, LARP1B / Fold change vs veh, LARP1B / RFU, RASA1 / Fold change vs veh, RASA1 / RFU, RB1 / Fold change vs veh, RB1 / RFU, PPFIA1 / Fold change vs veh, PPFIA1 / RFU, MAT2A / Fold change vs veh, MAT2A / RFU, CCT5 / Fold change vs veh, CCT5 / RFU, WDR92 / Fold change vs veh, WDR92 / RFU, CUX1 / Fold change vs veh, CUX1 / RFU, TTC7A / Fold change vs veh, TTC7A / RFU, TMEM135 / Fold change vs veh, TMEM135 / RFU, DEPTOR / Fold change vs veh, DEPTOR / RFU, CPM / Fold change vs veh, CPM / RFU, DNAJB6 / Fold change vs veh, DNAJB6 / RFU, CACNA2D3 / Fold change vs veh, CACNA2D3 / RFU, DTX4 / Fold change vs veh, DTX4 / RFU, TFCP2 / Fold change vs veh, TFCP2 / RFU, GMCL1 /// GMCL1P1 / Fold change vs veh, GMCL1 /// GMCL1P1 / RFU, AEBP2 / Fold change vs veh, AEBP2 / RFU, SNHG1 /// SNORD22 /// SNORD25 /// SNORD26 /// SNORD27 /// SNORD28 /// SNORD29 /// SNORD31 / Fold change vs veh, SNHG1 /// SNORD22 /// SNORD25 /// SNORD26 /// SNORD27 /// SNORD28 /// SNORD29 /// SNORD31 / Fold change (Aza/veh), C12orf56 (ProbeSet 11735607_a_at) / Fold change (ACY-1035/veh), C12orf56 (ProbeSet 11735607_a_at) / Fold change (Aza/veh), FGFR1OP (ProbeSet 11751329_s_at) / Fold change (ACY-1035/veh), FGFR1OP (ProbeSet 11751329_s_at) / Fold change (Aza/veh), VPS36 (ProbeSet 11739960_a_at) / Fold change (ACY-1035/veh), VPS36 (ProbeSet 11739960_a_at) / RFU SYPL1 (11715823_x_at) / Fold change /veh SYPL1 (11715823_x_at) / RFU IGFBP7 (11715501_s_at) / Fold change /veh IGFBP7 (11715501_s_at) / RFU REEP3 (11722064_at) / Fold change /veh REEP3 (11722064_at) / RFU IGLL1 (11728026_x_at) / Fold change /veh IGLL1 (11728026_x_at): dose or concentration left out as unconfirmed. The note with it: MV-4-11 cells, 48 hours.

For `Nc1ccc(-c2cccs2)cc1NC(=O)c1ccc2c(c1)cc(C1CC1)n2CCN1CCOCC1` [ACY-1035], the “Fold change /veh C10orf10 (11716521_a_at)” value worked out at 0.91.
